Here are results for seven molecules from patent publication US11344510B2, “Arylcyclohexylamine derivatives and their use in the treatment of psychiatric disorders” (Gilgamesh Pharmaceuticals, Inc., priority 2019, dated 2022).

As usually defined, the half-life is the time needed for the level to fall by half in the phase considered. By microsomal CLint is commonly meant the capacity of the preparation to metabolise the compound, expressed as a volume cleared per time. What is called Ki is a measure of affinity in units of concentration, obtained from inhibition or displacement. Broadly, the IC50 is the concentration that gives 50% inhibition. Higher therefore signals a need for much substance. The inhibition is the change of the read-out against control, counted positive when it falls.

“Also recorded” adds a separate entry of the source.

Series [1] can be described thus: HLM stability (High Activity). The class given is in vitro ADME. Conditions: both sexes, human, liver microsomes, pH 7.4, Condition 2 (High Activity), 1.0 mg protein/mL. Here is the method: (§1) HLM Stability (High Activity). Pooled HLM from adult male and female donors (XenoTech H0630) were used. Microsomal incubations were carried out in 96-well plates in 5 aliquots of 40 μL, each (one for each time point). Liver microsomal incubation medium consisted of PBS (100 mM, pH 7.4), MgCl2 (3.3 mM), NADPH (3 mM), glucose-6-phosphate (5.3 mM), and glucose-6-phosphate dehydrogenase (0.67 units/mL), with 1.0 mg of liver microsomal protein per mL. Control incubations were performed by replacing the NADPH-cofactor system with PBS. Test compounds (1 μM, final solvent concentration 1.6%) were incubated with microsomes at 37° C., shaking at 100 rpm. Incubations were performed in duplicate. Five time points over 60 minutes were analyzed. The reactions were stopped by adding 12 volumes of 90% acetonitrile-water to incubation aliquots, followed by protein sedimentation by centrifugation at 5500 rpm for 3 minutes. Supernatants were analyzed for parent compound remaining using a fit-for-purpose liquid chromatography-tandem mass spectrometry (LC-MS/MS) method, with authentic samples of each analyte used for identity confirmation.
(§2) Data Analysis. The elimination constant (kel), half-life (t1/2) and intrinsic clearance (Clint) were determined in a plot of […] versus time, using linear regression analysis.

Series [2] can be described thus: MLM stability (High Activity). Type of series: in vitro ADME, BALB/c mice. Conditions: male, BALB/c, mouse, liver microsomes, pH 7.4, Condition 2 (High Activity), 1.0 mg protein/mL. Here is the method: as §1, with “MLM” for “HLM”, “from” for “from adult”, “BALB/c mice” for “and female donors”, “M3000)” for “H0630)”, “μL” for “μL,”, “9” for “12”
as §2
(In general: Liver microsomes are vesicles of endoplasmic reticulum, rich in cytochrome P450 enzymes.)

For series [3], the target named is MK-801 binding site of the N-methyl-D-aspartate receptor (NMDAR). Put plainly: NMDAR radioligand binding with [3H]MK-801, Method B. Further details: species or system Sprague Dawley rat. To be noted: MK-801 site, Method B, male Sprague Dawley rat cortex, 5.0 nM [3H]MK-801; read-out: NMDAR Ki ± SEM. Here is the method:
Radioligand Binding—Method B. Affinity of the test compounds for NMDAR was determined in radioligand binding experiments with [^3H]MK-801 by WuXi AppTec (Hong Kong) Limited, under the conditions described in Table 13.

Series [4] has as its target T1, serotonin transporter (SERT) (Homo sapiens, UniProt P31645).
T1 construct: expressed in transfected cells; host or cells: HEK293
Put plainly: Fluorescent substrate uptake inhibition, SERT. To be noted: for inhibition at 10 µM: HEK293 cells expressing SERT. Type of series: cell-based.

Series [5] addresses T2, norepinephrine transporter (NET) (Homo sapiens, UniProt P23975).
T2 construct: expressed in transfected cells; host or cells: HEK293
Nature of the series: Fluorescent substrate uptake inhibition, NET. The class given is cell-based. To be noted: for inhibition at 10 µM: HEK293 cells expressing NET.

In series [6] the target is T3, dopamine transporter (DAT) (Homo sapiens, UniProt Q01959).
T3 construct: expressed in transfected cells; host or cells: CHO (uptake)
T3 sequence (Q01959 whole entry, species assumed): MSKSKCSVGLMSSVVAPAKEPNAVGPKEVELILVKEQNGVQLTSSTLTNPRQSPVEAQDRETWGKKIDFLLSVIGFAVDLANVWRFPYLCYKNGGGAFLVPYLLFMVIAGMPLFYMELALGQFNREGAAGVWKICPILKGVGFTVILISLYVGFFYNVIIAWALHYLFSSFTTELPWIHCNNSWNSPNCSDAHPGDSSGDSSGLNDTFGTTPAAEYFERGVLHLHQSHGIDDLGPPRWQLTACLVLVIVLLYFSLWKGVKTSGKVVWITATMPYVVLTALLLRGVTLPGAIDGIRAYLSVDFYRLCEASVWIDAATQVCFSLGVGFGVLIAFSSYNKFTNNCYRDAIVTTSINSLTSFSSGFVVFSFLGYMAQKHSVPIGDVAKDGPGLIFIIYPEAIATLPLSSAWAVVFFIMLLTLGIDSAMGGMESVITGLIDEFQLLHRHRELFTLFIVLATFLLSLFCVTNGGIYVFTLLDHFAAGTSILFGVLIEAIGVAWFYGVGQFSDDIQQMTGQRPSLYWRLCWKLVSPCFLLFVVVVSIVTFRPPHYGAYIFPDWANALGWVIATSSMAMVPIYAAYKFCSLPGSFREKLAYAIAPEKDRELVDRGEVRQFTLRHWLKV
Put plainly: Fluorescent substrate uptake inhibition, DAT. Type of series: cell-based. To be noted: for inhibition at 10 µM: CHO cells expressing DAT.

Series [7] concerns the target T4, vesicular monoamine transporter 2 (VMAT2) (Homo sapiens, UniProt Q05940).
T4 construct: expressed in transfected cells
Put plainly: Fluorescent substrate uptake inhibition, VMAT2. The class given is cell-based. Conditions: 10 μM, transfected cells.

The next series has as its target T5, SERT (Homo sapiens, UniProt P31645).
T5 construct: expressed in transfected cells; host or cells: HEK293
Nature of the series: SERT radioligand binding with [3H]imipramine. As to the method:
(§3) Radioligand Binding. Affinity of the test compounds for SERT, NET, and DAT was determined in radioligand binding experiments with [^3H]imipramine, [^3]nisoxetine, and [^3H]WIN35,428, respectively, by WuXi AppTec (Hong Kong) Limited, under the conditions described in Table 15.

Another series addresses T6, NET (Homo sapiens, UniProt P23975).
T6 construct: expressed in transfected cells; host or cells: HEK293
Nature of the series: NET radioligand binding with [3H]nisoxetine. Here is the method: as §3

For a further series, the target named is T7, DAT (Homo sapiens, UniProt Q01959).
T7 construct: expressed in transfected cells; host or cells: CHO (uptake)
T7 sequence (Q01959 whole entry, species assumed): as above
Put plainly: DAT radioligand binding with [3H]WIN35,428. As to the method:
as §3

Series [8] addresses MK-801 binding site of the N-methyl-D-aspartate receptor (NMDAR). Put plainly: NMDAR radioligand binding with [3H]MK-801, Method A. To be noted: for Ki: MK-801 site, Method A, Wistar rat brain (minus cerebellum), 5.0 nM [3H]MK-801, read-out: NMDAR Ki ± SEM. Further details: species or system Wistar rat. Here is the method:
Radioligand Binding—Method A. Affinity of the test compounds for NMDAR was determined in radioligand binding experiments with [^3H]MK-801 by Eurofins Panlabs, Inc., using methods adapted from the literature (Javitt et al. 1987; Reynolds et al. 1989) and under the conditions described in Table 12.

The next series deals with CSDS-susceptible mice. Put plainly: Behavioral tests after chronic social defeat stress (CSDS). The class given is in vivo, C57BL/6 mice.
Series [9] can be described thus: HLM stability (Low Activity, Alternative Method). Type of series: in vitro ADME. Conditions: both sexes, human, liver microsomes, pH 7.4, Condition 1 column, values marked *: Low Activity, 0.50 mg protein/mL. The essentials:
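Pooled male and female human liver microsomes (0.50 mg/mL) in 100 mM PBS pH 7.4 with 1 mM MgCl2 and 1 mM NADPH, compound 1 μM (1.0% solvent), 37° C with shaking, six time points over 60 min. Parent remaining measured by LC-MS/MS; kel, t1/2 and Clint from linear regression of ln(AUC) versus time.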

Series [10] in a line: MLM stability (Low Activity). The class given is in vitro ADME, CD-1 mice. To be noted: male, CD-1, mouse, liver microsomes, pH 7.4, Condition 1 (Low Activity), 0.50 mg protein/mL. The essentials: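 Pooled male CD-1 mouse liver microsomes (0.50 mg/mL) with 1 μM compound and 1 mM NADPH in 100 mM PBS pH 7.4 with 1 mM MgCl2, 37 °C, six time points over 60 min. Parent remaining by LC-MS/MS; kel, t1/2 and Clint from linear regression of ln(AUC) versus time.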

Series [11] is described as follows: RLM stability (Low Activity). Type of series: in vitro ADME, Sprague Dawley rats. To be noted: male, Sprague Dawley, rat, liver microsomes, pH 7.4, Condition 1 (Low Activity), 0.50 mg protein/mL. An outline of the steps: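 Pooled male Sprague Dawley rat liver microsomes (0.50 mg/mL) in PBS pH 7.4 with 1 mM MgCl2 and 1 mM NADPH; compound 1 μM, 1.0% solvent, 37° C. Six time points over 60 min, parent remaining by LC-MS/MS; kel, t1/2 and Clint from linear regression of ln(AUC) versus time.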

Series [12] concerns monoamine transporters, MATs (SERT, NET, DAT, VMAT2). Put plainly: Monoamine uptake inhibition, monoamine transporters collectively. The class given is cell-based. Conditions: in words. Here is the method: The ability of the compounds of the present invention to inhibit uptake of monoamines by the serotonin transporter (SERT), norepinephrine transporter (NET), dopamine transporter (DAT), and vesicular monoamine transporter 2 (VMAT2) (collectively monoamine transporters, MATs) was measured using fluorescent substrate uptake assays in transfected cells (Table 14). The binding affinities of select compounds were also determined in radioligand displacement assays at SERT, NET, and/or DAT (Table 14).
Uptake Inhibition. The ability of test compounds to block monoamine uptake by SERT, NET, DAT, and VMAT2 was determined using the Neurotransmitter Transporter Uptake Assay Kit manufactured by Molecular Devices (Cat #R8173). Briefly, stably transfected cells expressing the MAT of interest (HEK293 cells for SERT and NET; CHO cells for DAT) were grown and plated into 384-well plates at a concentration of 20,000 cells per well. Plates were then incubated for 16-20 h at 37° C. and 5% CO2. The medium was then aspirated and replaced with 25 μL of assay buffer (20 mM HEPES in HBSS, containing 0.1% BSA) containing the test compounds at the appropriate concentrations. Plates were then centrifuged at 300 rpm for 15 s and then incubated at 37° C. for 30 minutes. At this time, 25 μL of the proprietary fluorescent dye solution was added, the plates were incubated at 37° C. for 60 minutes, and then fluorescence was quantified on a plate reader (excitation wavelength=440 nm, emission wavelength=520 nm). The proprietary dye solution contains a mixture of 1) a fluorescent dye that mimics the endogenous substrates of MATs and is thereby actively transported to the intracellular compartment in the absence of an inhibitor and 2) a masking dye that inhibits the fluorescence of dye 1 in the extracellular compartment. Therefore, the overall fluorescence of the system increases as the fluorescent dye is transported into the cells.

Setting [13] is: 14.4 mg/kg i.p. as hydrogen tartrate salts.

T1 sequence (P31645 whole entry, species assumed): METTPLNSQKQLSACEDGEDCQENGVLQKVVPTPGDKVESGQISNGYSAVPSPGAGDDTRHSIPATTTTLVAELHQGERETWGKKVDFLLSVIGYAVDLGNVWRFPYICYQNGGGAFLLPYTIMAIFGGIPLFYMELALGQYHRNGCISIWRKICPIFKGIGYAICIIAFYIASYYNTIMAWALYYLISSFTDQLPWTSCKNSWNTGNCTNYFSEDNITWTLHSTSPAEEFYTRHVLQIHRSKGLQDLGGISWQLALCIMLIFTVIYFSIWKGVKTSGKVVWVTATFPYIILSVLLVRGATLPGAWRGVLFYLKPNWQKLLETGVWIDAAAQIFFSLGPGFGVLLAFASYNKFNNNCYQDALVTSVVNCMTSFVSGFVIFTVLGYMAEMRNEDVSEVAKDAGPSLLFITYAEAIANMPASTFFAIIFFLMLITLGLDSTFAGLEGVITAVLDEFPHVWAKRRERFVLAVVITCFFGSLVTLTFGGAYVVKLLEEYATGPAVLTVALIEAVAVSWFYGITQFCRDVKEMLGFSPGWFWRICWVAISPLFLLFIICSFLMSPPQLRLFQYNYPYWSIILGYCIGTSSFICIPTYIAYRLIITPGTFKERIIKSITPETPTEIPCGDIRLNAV
T4 sequence (Q05940 whole entry, species assumed): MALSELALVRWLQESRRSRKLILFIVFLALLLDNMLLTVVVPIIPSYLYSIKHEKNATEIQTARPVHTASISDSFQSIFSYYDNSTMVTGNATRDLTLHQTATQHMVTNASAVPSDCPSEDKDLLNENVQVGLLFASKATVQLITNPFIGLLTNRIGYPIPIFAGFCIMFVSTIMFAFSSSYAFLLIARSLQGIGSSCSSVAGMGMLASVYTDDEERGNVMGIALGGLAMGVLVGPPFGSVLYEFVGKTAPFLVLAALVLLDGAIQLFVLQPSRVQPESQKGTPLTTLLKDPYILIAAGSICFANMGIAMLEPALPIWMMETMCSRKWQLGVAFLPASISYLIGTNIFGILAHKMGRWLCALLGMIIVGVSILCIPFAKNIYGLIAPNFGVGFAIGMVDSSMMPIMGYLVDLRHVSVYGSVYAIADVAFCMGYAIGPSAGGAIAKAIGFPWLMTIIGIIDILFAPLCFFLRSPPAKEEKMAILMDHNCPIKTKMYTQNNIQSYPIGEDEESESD
T2 sequence (P23975 whole entry, species assumed): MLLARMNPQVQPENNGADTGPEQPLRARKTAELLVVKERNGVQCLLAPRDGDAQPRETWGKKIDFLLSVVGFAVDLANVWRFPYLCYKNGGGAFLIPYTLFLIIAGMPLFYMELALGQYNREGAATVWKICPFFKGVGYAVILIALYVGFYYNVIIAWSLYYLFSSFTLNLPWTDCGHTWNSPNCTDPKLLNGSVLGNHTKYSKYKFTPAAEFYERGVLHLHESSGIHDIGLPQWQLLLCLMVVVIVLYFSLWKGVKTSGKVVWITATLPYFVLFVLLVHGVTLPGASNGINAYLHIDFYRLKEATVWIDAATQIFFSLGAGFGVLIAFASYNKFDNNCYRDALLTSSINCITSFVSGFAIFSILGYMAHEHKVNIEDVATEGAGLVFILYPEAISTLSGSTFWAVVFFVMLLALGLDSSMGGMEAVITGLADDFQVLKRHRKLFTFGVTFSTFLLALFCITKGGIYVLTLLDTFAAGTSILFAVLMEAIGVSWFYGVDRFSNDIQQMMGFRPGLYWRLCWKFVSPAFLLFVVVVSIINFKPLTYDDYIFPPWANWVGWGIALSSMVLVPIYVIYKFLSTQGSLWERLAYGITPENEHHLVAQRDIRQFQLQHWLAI
T5 sequence (P31645 whole entry, species assumed): as the sequence (P31645 whole entry, species assumed) above
T6 sequence (P23975 whole entry, species assumed): as the sequence (P23975 whole entry, species assumed) above

Take `O=C1CCCC[C@@]1(c1ccccc1)N1CCCCC1` [Compound 26S, (S)-2-phenyl-2-(piperidin-1-yl)cyclohexan-1-one]: the results for the half-life at 1 μM in [1] and in [2] were 1.68 h and 0.205 h, respectively. In addition, the values for the microsomal CLint at 1 μM in [1] and in [2] were 7 µL/min/mg and 56 µL/min/mg, respectively. The Ki in series [3] was 0.52 µM; on SERT, 8.2 µM; at NET, more than 87.4 µM; on DAT, 79.5 µM. In addition, the half-inhibitory concentration (IC50) in [4] worked out at 44 µM; in series [5], 8.9 µM; in series [6], 16.4 µM. The inhibition at 10 µM is 43% in [4], 16.1% in series [5], 33.7% in series [6] and 22.9% in [7].
In the case of `CN[C@]1(c2ccccc2F)CCCCC1=O` [Compound 35S, (S)-2-(2-Fluorophenyl)-2-(methylamino)cyclohexan-1-one], the Ki in series [8] is 0.79 ± 0.21 µM. The “antidepressant-like activity in behavioral tests after CSDS (TST, FST, SPT)” value (shortened to “antidepressant-like activity”) in the series on CSDS-susceptible mice (setting [13]) was “induced antidepressant-like effects”.
Regarding `O=C1CCCC[C@]1(c1ccccc1)N1CCCCC1` [Compound 26R, (R)-2-phenyl-2-(piperidin-1-yl)cyclohexan-1-one], the half-life at 1 μM in series [1] was found to be 1.05 h; in series [2] it was 0.177 h. Moreover, the intrinsic metabolic clearance (microsomal CLint) at 1 μM in series [1] amounted to 11 µL/min/mg; in series [2], 65 µL/min/mg. In addition, the Ki was 3.7 µM in [3], 22.5 µM at SERT, more than 87.4 µM on NET and 70.4 µM at DAT. Further, the IC50 in series [4] is more than 100 µM; in [5], 23.7 µM; in series [6] it was 5 µM. In addition, the inhibition at 10 µM in series [4] was 30.4%; in series [5] it was 19.5%; in series [6] it was 58%; in series [7], -12.3%. Besides, the “inhibitory activity at DAT” value in series [6] (in words) is on record as “significant inhibitory activity at DAT”.
As for `CNC1(c2ccccc2Cl)CCCCC1=O` (racemic) [racemic ketamine, reference compound], in the series on CSDS-susceptible mice (10 mg/kg i.p., single dose), the “antidepressant-like activity” value is “effective”.
For the molecule `CNC1(c2ccc(F)cc2)CCCCC1=O` (racemic) [Compound 18rac, 2-(4-fluorophenyl)-2-(methylamino)cyclohexan-1-one], in [9], the half-life at 1 μM is more than 2.42 h. Also, the figures for the microsomal CLint at 1 μM in series [9], in series [10] and in [11] were less than 9.6 µL/min/mg, 13.7 µL/min/mg and 19.6 µL/min/mg, respectively. Moreover, the inhibitory constant (Ki) in [3] came to 4.5 µM. Further, the inhibition at 10 µM worked out at 25.2% in series [4], 16% in series [5], 21.4% in [6] and 20.2% in series [7]. For the same molecule, in series [12], the “selectivity for NMDAR (over MATs)” value is on record as “greater selectivity for NMDAR”.
Consider `CNC1(c2ccccc2I)CCCCC1=O` (racemic) [Compound 37rac, 2-(2-Iodophenyl)-2-(methylamino)cyclohexan-1-one], for which the “antidepressant-like activity” value was “not effective” in the series on CSDS-susceptible mice (10 mg/kg i.p., single dose) and “only partially effective” in the series on CSDS-susceptible mice (30 mg/kg i.p., single dose).
Consider `CN[C@@]1(c2ccccc2F)CCCCC1=O` [Compound 35R, (R)-2-(2-Fluorophenyl)-2-(methylamino)cyclohexan-1-one], for which the Ki in [8] was found to be 3.91 ± 0.4 µM. For the same molecule, in series [8] (vs 35S, 35rac, racemic ketamine and R-ketamine), the “NMDAR binding, comparison in words” value is “weaker NMDAR binding”. Besides, the “antidepressant-like activity” value in the series on CSDS-susceptible mice (setting [13]) is “induced antidepressant-like effects; also recorded: more robust and longer lasting”.
